Results on 19 compounds are retold here after patent US20230373985A1 (Origenis Gmbh, priority 2020, published 2023).

Assay [1] has as its target T1, wt human TYK2, catalytic site (Homo sapiens, UniProt P29597).
T1 construct: wt human TYK2, catalytic site; purchased SignalChem
T1 sequence (P29597 897-1176 limits assumed): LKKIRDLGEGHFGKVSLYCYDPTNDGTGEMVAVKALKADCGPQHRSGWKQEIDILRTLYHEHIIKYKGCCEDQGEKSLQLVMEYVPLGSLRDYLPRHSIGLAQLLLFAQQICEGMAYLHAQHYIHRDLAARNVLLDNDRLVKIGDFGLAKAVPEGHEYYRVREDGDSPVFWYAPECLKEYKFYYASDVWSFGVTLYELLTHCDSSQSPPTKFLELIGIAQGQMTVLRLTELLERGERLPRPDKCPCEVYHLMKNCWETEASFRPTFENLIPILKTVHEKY
The assay can be described thus: HTRF KinEASE assay, TYK2. The assay is classed as biochemical. Conditions: 1 μM ATP; read-out: IC50, Activity Toward TYK2. Summed up:
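Kinase reaction run at room temperature for at least 30 min: 2 nM TYK2 with 1 μM ATP, or 1 nM JAK2 with 100 μM ATP, each with 1 μM biotin-TK substrate. Phosphorylation detected by HTRF (60 min antibody/XL665) and evaluated from emission ratios.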

Assay [2] concerns the target T2, wt human LRRK2, catalytic site (Homo sapiens, UniProt Q5S007).
T2 construct: 5 nM wt human LRRK2, catalytic site; purchased ThermoFisher
The assay can be described thus: TR-FRET LanthaScreen Eu Kinase Binding Assay, LRRK2 wt. To be noted: one range stated for wt and G2019, read-out: IC50, Activity Toward LRRK2(Wt). The procedure:
(§1) The basic protocol for TR-FRET LanthaScreen Eu Kinase Binding Assay inhibitor studies were performed as follows. LanthaScreen Kinase Binding Assays (ThermoFisher/USA) to evaluate inhibitors were performed by addition of 5 μL of test compound in corresponding DMSO dilutions/5 μl of kinase/antibody mixture, 5 μL of tracer into 384 well small volume plates. After incubation for 1 hour at room temperature, plates were read. Data analysis of emission ratios was according LanthaScreen Eu Kinase Binding Assay protocol.
(§2) Kinase and assay components were adjusted to final concentrations according to kit protocol. For LRRK2: 5 nM wt human LRRK2, catalytic site, or G2019S human LRRK2, catalytic site (ThermoFisher/USA), 2 nM Eu-Anti-GST Antibody, 10 nM Kinase Tracer 236 in 1× Kinase Buffer A. For NUAK1: 8 nM wt human NUAK1, full length (ThermoFisher/USA), 2 nM Eu-Anti-His Antibody, 5 nM Kinase Tracer 236 in 1× Kinase Buffer A.
A general note: Time-resolved FRET reads energy transfer from a long-lived donor to a nearby acceptor.

Assay [3] addresses T3, G2019S human LRRK2, catalytic site (Homo sapiens, UniProt Q5S007, G2019S).
T3 construct: G2019S human LRRK2, catalytic site; purchased ThermoFisher
Nature of the assay: TR-FRET LanthaScreen Eu Kinase Binding Assay, LRRK2 G2019S. To be noted: LRRK2(G2019); one range stated for wt and G2019; read-out: IC50, Activity Toward LRRK2(G2019). The protocol: as §1, §2

The target in assay [4] is T4, wt human JAK1, catalytic site (Homo sapiens, UniProt P23458).
T4 construct: wt human JAK1, catalytic site; purchased ThermoFisher
T4 sequence (P23458 875-1153 limits assumed): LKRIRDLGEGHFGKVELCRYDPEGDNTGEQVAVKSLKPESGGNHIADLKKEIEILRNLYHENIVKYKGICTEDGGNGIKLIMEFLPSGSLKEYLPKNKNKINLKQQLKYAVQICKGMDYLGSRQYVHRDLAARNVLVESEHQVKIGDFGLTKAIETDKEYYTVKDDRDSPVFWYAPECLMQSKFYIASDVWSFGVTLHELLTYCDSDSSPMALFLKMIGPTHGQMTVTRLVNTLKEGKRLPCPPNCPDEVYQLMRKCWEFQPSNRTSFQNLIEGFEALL
Nature of the assay: HTRF KinEASE assay, JAK1. It is filed as biochemical. To be noted: 2.5 μM ATP; read-out: IC50, Activity Toward JAK1. Summed up:
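Compounds in DMSO dilution were mixed with kinase, biotin-TK substrate and ATP and reacted for ≥30 min at room temperature. Detection reagents (antibody, streptavidin-XL665) were read 60 min later as HTRF, with emission ratios analysed per KinEASE protocol.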

Some results are limits rather than exact numbers.

T3 sequence (Q5S007 970-2527 G2019S limits assumed): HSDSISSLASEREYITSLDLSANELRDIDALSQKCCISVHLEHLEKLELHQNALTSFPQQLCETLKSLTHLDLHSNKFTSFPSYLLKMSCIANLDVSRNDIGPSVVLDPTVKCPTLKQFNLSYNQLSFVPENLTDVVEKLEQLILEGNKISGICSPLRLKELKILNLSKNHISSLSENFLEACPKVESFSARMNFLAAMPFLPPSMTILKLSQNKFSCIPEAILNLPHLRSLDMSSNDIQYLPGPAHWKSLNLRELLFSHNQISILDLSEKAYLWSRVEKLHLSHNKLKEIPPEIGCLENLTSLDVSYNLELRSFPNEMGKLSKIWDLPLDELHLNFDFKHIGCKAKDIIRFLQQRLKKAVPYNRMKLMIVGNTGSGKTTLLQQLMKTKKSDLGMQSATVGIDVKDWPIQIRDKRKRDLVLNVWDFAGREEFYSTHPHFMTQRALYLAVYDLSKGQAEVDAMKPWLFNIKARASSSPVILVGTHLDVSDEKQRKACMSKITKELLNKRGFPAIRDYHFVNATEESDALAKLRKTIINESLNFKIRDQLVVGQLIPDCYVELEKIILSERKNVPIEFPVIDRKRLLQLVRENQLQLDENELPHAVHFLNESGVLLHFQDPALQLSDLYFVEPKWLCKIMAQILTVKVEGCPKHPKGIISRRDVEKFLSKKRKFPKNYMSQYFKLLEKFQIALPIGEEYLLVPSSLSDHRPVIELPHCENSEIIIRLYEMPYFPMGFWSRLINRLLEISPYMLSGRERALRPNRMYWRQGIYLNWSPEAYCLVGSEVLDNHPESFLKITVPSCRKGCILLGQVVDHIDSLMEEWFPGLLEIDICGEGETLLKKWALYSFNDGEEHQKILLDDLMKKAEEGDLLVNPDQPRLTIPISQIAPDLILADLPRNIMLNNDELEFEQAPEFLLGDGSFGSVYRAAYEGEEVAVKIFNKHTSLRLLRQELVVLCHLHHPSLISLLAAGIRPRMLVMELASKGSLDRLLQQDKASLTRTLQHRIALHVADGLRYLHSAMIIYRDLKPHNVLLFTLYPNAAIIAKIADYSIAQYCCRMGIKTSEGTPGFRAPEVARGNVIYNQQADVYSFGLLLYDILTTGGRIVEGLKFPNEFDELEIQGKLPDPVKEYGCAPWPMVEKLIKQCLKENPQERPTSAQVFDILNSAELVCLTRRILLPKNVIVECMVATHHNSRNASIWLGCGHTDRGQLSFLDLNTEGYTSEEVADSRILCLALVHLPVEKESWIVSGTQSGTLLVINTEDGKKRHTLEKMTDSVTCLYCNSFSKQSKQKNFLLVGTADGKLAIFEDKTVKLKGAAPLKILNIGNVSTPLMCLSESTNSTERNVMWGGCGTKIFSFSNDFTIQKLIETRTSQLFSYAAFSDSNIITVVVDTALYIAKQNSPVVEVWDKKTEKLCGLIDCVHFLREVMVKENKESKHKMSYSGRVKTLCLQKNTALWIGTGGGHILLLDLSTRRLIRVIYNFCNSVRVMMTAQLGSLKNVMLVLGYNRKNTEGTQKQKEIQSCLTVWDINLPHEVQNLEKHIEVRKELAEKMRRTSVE
T2 sequence (Q5S007 970-2527 limits assumed): as the sequence (Q5S007 970-2527 G2019S limits assumed) above, with S1050G counted along it

`Cc1cccc2nnc(-c3ccc(Nc4cn(-c5c(Cl)cccc5Cl)nc4C(N)=O)cc3)n12` [compound 376, 1-(2,6-dichlorophenyl)-4-((4-(5-methyl-[1,2,4]triazolo[4,3-a]pyridin-3-yl)phenyl)amino)-1H-pyrazole-3-carboxamide]: the IC50 (in general, the concentration that inhibits the measured activity by half) in assay [1] was in the range of 10 to 100 nM; in assay [2], 100 to 1000 nM; in assay [3], 100 to 1000 nM; in assay [4], 10 to 100 nM.
In the case of `NC(=O)c1nn(-c2c(F)cccc2F)cc1Nc1cccc(C(=O)N2CCOCC2)c1` [compound 18, 1-(2,6-difluorophenyl)-4-((3-(morpholine-4-carbonyl)phenyl)amino)-1H-pyrazole-3-carboxamide], the IC50 in assay [1], in assay [2], in assay [3] and in assay [4] was 100 to 1000 nM each time.
Consider `NC(=O)c1nn(-c2c(Cl)cccc2Cl)cc1Nc1ccc(-c2nccn2CC(F)(F)F)cc1` [compound 268, 1-(2,6-dichlorophenyl)-4-((4-(1-(2,2,2-trifluoroethyl)-1H-imidazol-2-yl)phenyl)amino)-1H-pyrazole-3-carboxamide], for which the IC50 lay in the range of 10 to 100 nM in assay [1], 100 to 1000 nM in assay [2], 100 to 1000 nM in assay [3] and 10 to 100 nM in assay [4].
As to `CCn1nc(C(F)(F)F)nc1-c1ccc(Nc2cn(-c3c(F)cccc3F)nc2C(N)=O)cc1` [compound 302, 1-(2,6-difluorophenyl)-4-((4-(1-ethyl-3-(trifluoromethyl)-1H-1,2,4-triazol-5-yl)phenyl)amino)-1H-pyrazole-3-carboxamide], the IC50 in assay [1] was < 10 nM; in assay [2] it was 100 to 1000 nM; in assay [3], 100 to 1000 nM; in assay [4], 10 to 100 nM.
For `CN1CCN(S(=O)(=O)c2ccc(Nc3cn(-c4c(Cl)cccc4Cl)nc3C(N)=O)cc2)CC1` [compound 85, 1-(2,6-dichlorophenyl)-4-((4-((4-methylpiperazin-1-yl)sulfonyl)phenyl)amino)-1H-pyrazole-3-carboxamide], the IC50 in assay [1] was < 10 nM; in assay [2], 100 to 1000 nM; in assay [3], 100 to 1000 nM; in assay [4] it was 10 to 100 nM.
In the case of `NC(=O)c1nn(-c2c(Cl)cccc2Cl)cc1Nc1ccc(-c2cccnn2)cc1` [compound 49, 1-(2,6-dichlorophenyl)-4-((4-(pyridazin-3-yl)phenyl)amino)-1H-pyrazole-3-carboxamide], the IC50 fell in the range of 10 to 100 nM in assay [1], 100 to 1000 nM in assay [2], 100 to 1000 nM in assay [3] and 10 to 100 nM in assay [4].
Take `NC(=O)c1nn(-c2c(Cl)cccc2Cl)cc1Nc1ccc(-c2nncn2/C=C/F)cc1` [compound 415, (E)-1-(2,6-dichlorophenyl)-4-((4-(4-(2-fluorovinyl)-4H-1,2,4-triazol-3-yl)phenyl)amino)-1H-pyrazole-3-carboxamide]: the IC50 in assay [1] was < 10 nM; in assay [2] it was 100 to 1000 nM; in assay [3], 100 to 1000 nM; in assay [4], 10 to 100 nM.
As for `CC1(C)CN(C(=O)c2ccc(Nc3cn(-c4c(Cl)cccc4Cl)nc3C(N)=O)cc2)C1` [compound 456, 1-(2,6-dichlorophenyl)-4-((4-(3,3-dimethylazetidine-1-carbonyl)phenyl)amino)-1H-pyrazole-3-carboxamide], the IC50 in assay [1] was < 10 nM; in assay [2] it was 100 to 1000 nM; in assay [3] it was 100 to 1000 nM; in assay [4] it was 10 to 100 nM.
`CCn1cc(C(F)(F)F)nc1-c1ccc(Nc2cn(-c3c(F)cccc3F)nc2C(N)=O)cc1` [compound 304, 1-(2,6-difluorophenyl)-4-((4-(1-ethyl-4-(trifluoromethyl)-1H-imidazol-2-yl)phenyl)amino)-1H-pyrazole-3-carboxamide]: the half-maximal inhibitory concentration (IC50) in assay [1] was 10 to 100 nM; in assay [2] it was 10 to 100 nM; in assay [3], 10 to 100 nM; in assay [4], 100 to 1000 nM.
For `CN1CCC(N(C)C(=O)c2ccc(Nc3cn(-c4c(Cl)cccc4Cl)nc3C(N)=O)cc2)CC1` [compound 50, 1-(2,6-dichlorophenyl)-4-((4-(methyl(1-methylpiperidin-4-yl)carbamoyl)phenyl)amino)-1H-pyrazole-3-carboxamide], the IC50 was 10 to 100 nM in assay [1], 100 to 1000 nM in assay [2], 100 to 1000 nM in assay [3] and 100 to 1000 nM in assay [4].
Take `NC(=O)c1nn(-c2c(Cl)cccc2Cl)cc1Nc1ccc(C(=O)N2CCN(CC(F)F)CC2)cc1` [compound 83, 1-(2,6-dichlorophenyl)-4-((4-(4-(2,2-difluoroethyl)piperazine-1-carbonyl)phenyl)amino)-1H-pyrazole-3-carboxamide]: the IC50 in assay [1] is < 10 nM; in assay [2] it was 100 to 1000 nM; in assay [3], 100 to 1000 nM; in assay [4], 100 to 1000 nM.
As to `NC(=O)c1nn(-c2c(Cl)cccc2Cl)cc1Nc1ccc(-c2nnc3n2CCCCC3)cc1` [compound 63, 1-(2,6-dichlorophenyl)-4-((4-(6,7,8,9-tetrahydro-5H-[1,2,4]triazolo[4,3-a]azepin-3-yl)phenyl)amino)-1H-pyrazole-3-carboxamide], the IC50 in assay [1] was 10 to 100 nM; in assay [2], 10 to 100 nM; in assay [3] it was 10 to 100 nM; in assay [4], 100 to 1000 nM.
Take `CN1CCC(NS(=O)(=O)c2ccc(Nc3cn(-c4c(Cl)cccc4Cl)nc3C(N)=O)cc2)CC1` [compound 89, 1-(2,6-dichlorophenyl)-4-((4-(N-(1-methylpiperidin-4-yl)sulfamoyl)phenyl)amino)-1H-pyrazole-3-carboxamide]: the IC50 in assay [1] is < 10 nM; in assay [2], 100 to 1000 nM; in assay [3], 100 to 1000 nM; in assay [4], 100 to 1000 nM.
`CC(C)(C)NC(=O)c1ccc(Nc2cn(-c3c(Cl)cccc3Cl)nc2C(N)=O)cc1` [compound 26, 4-((4-(tert-butylcarbamoyl)phenyl)amino)-1-(2,6-dichlorophenyl)-1H-pyrazole-3-carboxamide]: the IC50 was 10 to 100 nM in assay [1], 100 to 1000 nM in assay [2], 100 to 1000 nM in assay [3] and 10 to 100 nM in assay [4].
On to `Cc1ccncc1-c1ccc(Nc2cn(-c3c(Cl)cccc3Cl)nc2C(N)=O)cn1` [compound 394, 1-(2,6-dichlorophenyl)-4-((4′-methyl-[2,3′-bipyridin]-5-yl)amino)-1H-pyrazole-3-carboxamide], for which the IC50 in assay [1], in assay [2], in assay [3] and in assay [4] was 100 to 1000 nM each time.
For the compound `NC(=O)c1nn(-c2c(Cl)cccc2Cl)cc1Nc1cnn(-c2ncccc2F)c1` [compound 386, 1-(2,6-dichlorophenyl)-4-((1-(3-fluoropyridin-2-yl)-1H-pyrazol-4-yl)amino)-1H-pyrazole-3-carboxamide], the IC50 in assay [1] lay in the range of 10 to 100 nM; in assay [2], 100 to 1000 nM; in assay [3], 100 to 1000 nM; in assay [4], 10 to 100 nM.
As for `Cc1cncnc1-c1ccc(Nc2cn(-c3c(Cl)cccc3Cl)nc2C(N)=O)cc1` [compound 51, 1-(2,6-dichlorophenyl)-4-((4-(5-methylpyrimidin-4-yl)phenyl)amino)-1H-pyrazole-3-carboxamide], the IC50 is 10 to 100 nM in assay [1], 100 to 1000 nM in assay [2], 100 to 1000 nM in assay [3] and 10 to 100 nM in assay [4].
In the case of `CCc1nnnn1-c1ccc(Nc2cn(-c3c(Cl)cccc3Cl)nc2C(N)=O)cc1` [compound 259, 1-(2,6-dichlorophenyl)-4-((4-(5-ethyl-1H-tetrazol-1-yl)phenyl)amino)-1H-pyrazole-3-carboxamide], the IC50 in assay [1] was < 10 nM; in assay [2], 100 to 1000 nM; in assay [3], 100 to 1000 nM; in assay [4] it was 10 to 100 nM.
In the case of `NC(=O)c1nn(-c2c(Cl)cccc2Cl)cc1Nc1ccc(-c2ccnnc2)cc1` [compound 321, 1-(2,6-dichlorophenyl)-4-((4-(pyridazin-4-yl)phenyl)amino)-1H-pyrazole-3-carboxamide], the IC50 lay within 10 to 100 nM in assay [1], 100 to 1000 nM in assay [2], 100 to 1000 nM in assay [3] and 10 to 100 nM in assay [4].
